SMILES | melting point [°C]
O=C1NC(c2ccccc2)=C2C(=O)OC(c3ccc(Br)cc3)=C12 | 295
COc1cc(C(F)(F)F)nc2c(Cl)ccc(F)c12 | 198 to 200
c1cnc2[nH]cc(C3CN4CCC3CC4)c2c1 (stereo unspecified) | 185
CCOC(=O)[C@H]1CC(OC(C)=O)CN1S(=O)(=O)c1ccc(C)cc1 (stereo partly specified) | 82 to 83
CCCS(=O)c1cc(O)ccc1C (stereo unspecified) | 84 to 85
COP(=S)(OC)Oc1nsc(-c2ccccc2)c1C#N | 40
Fc1ccc(-c2cc(C(F)(F)F)n3ncc(-c4ccccn4)c3n2)cc1Cl | 197
Cn1cc(-c2cc3cccnc3[nH]2)c2cc(C(=O)N(CCO)CCO)ccc21 | 230 to 232
COc1ccc(CNc2nc(C)nc(C)c2Cl)cc1OCc1ccccc1 | 111 to 117
O=C(NCCCCCC1CCSS1)c1ccccc1 (stereo unspecified) | 58 to 59
NCCCCNc1ncc2ncnc(Nc3ccc(F)c(Cl)c3)c2n1 | 160 to 162
COc1cc2c(cc1-c1cncs1)-c1c(-c3cncs3)c3c(n1CC2)C(=O)N(C(C)(C)C)CCOC3 | 254 to 255
COc1ccc(-c2nc(-c3ccc4c(c3)CCCN4C(C)=O)cs2)cc1OC | 148
O=C(Nc1cc(Cl)cc(Cl)c1O)C(=O)Nc1ncc(Cl)cc1Cl | 245
O=C1COc2ccccc2C(=O)C1=CNc1ccccc1 | 94 to 96
COc1cccc2c(=O)c(C(N)=O)coc12 | 229 to 231
C=CCc1c(O)ccc2c1CCC(=O)N2CC=C(C)C | 182 to 184
CC(C)NC(C)Cc1ccc(O)cn1 (stereo unspecified) | 135 to 138
Oc1ccc2c(c1)COc1c-2cc2ccc(O)cc2c1-c1cccs1 | 233 to 236
O=C1N(Nc2ccccc2)C(=S)OC12c1ccccc1-c1ccccc12 | 187 to 189
FC(F)(F)C1(c2cc(Cl)cc(Cl)c2)CC(c2ccc(CBr)c(Cl)c2)=NO1 (stereo unspecified) | 94 to 97
CNc1nc2c(C)cccc2c2c1CCN2c1ccccc1C | 165 to 167
CCC(c1cc2c(-c3ccc(C(F)(F)F)n(C)c3=O)c(F)cc(Cl)c2o1)S(C)=O (stereo unspecified) | 125 to 127
CC(C)OC(=O)c1cc(N2C(=O)C(C)C(C)N(C)C2=O)c(F)cc1Cl (stereo unspecified) | 119 to 120
COC(=O)CCc1cccc(OCCC2Oc3ccccc3N(Cc3cccc(Cl)c3)C2=O)c1 (stereo unspecified) | 92 to 94
O=C1N(CCCCN2CCN(c3cn(-c4ccc(F)cc4)c4ccccc34)CC2)CSC12CCCCC2 | 134 to 136

SMILES | melting point [°C]
CC1(C)OC(=O)Nc2ccc(-c3cc(C#N)cc(C#N)c3)cc21 | 288 to 289
Cn1cc([N+](=O)[O-])nc1C(=O)Cl | 126 to 128
CCOC(=O)c1[nH]c2c(Cl)ccc(Cl)c2c1C | 107 to 108
Cc1ccn(-c2ccc(S(C)(=O)=O)cc2)c1-c1ccc(Cl)cc1 | 173 to 174
COc1cc(C(C)C)c2c(c1)S(=O)(=O)N(COc1cc(C)oc(=O)c1Cl)C2=O | 182 to 184
CCCCOc1cccn2c(=O)cc(C)nc12 | 93 to 94
CC#CC(=O)Nc1ccc(-n2nc(C(F)(F)F)cc2C(F)(F)F)cc1 | 220 to 221
CC(C)(C)OC(=O)C(Nc1ccccc1)c1cccc(Br)c1 (racemic) | 90
COc1ccc(-c2coc3c(C)c(O)ccc3c2=O)cc1OC | 234
CSc1cc2c(cc1F)C(=O)C(=O)N2 | 296
O=C(NC(=O)c1ccccc1Cl)Nc1ccc(-n2cccc2)c(Cl)c1 | 169 to 170
CSc1nn2c(N3C[C@@H](C)N[C@@H](C)C3)cc(C)nc2c1S(=O)(=O)c1ccccc1 | 220 to 221
Cc1ccccc1-c1ccc2c(c1)CN(CCNC(=O)C1CCCC1)C(N)=N2 | 43 to 46
COc1cccc(CNc2ncnc3c2sc2nc(N(C)C)c4c(c23)CC(C)(C)CC4)c1OC | 91.9 to 93
COC1=C(C(=O)c2ccc(C)cc2)C(c2ccc(OC(F)(F)F)cc2)N(c2ccc(C)nn2)C1=O (stereo unspecified) | 206 to 207
Cc1sc(C(F)(F)F)nc1O | 108 to 110
CC1CCc2c(Cl)ccc3c(=O)c(C(=O)O)cn1c23 (stereo unspecified) | 290 to 291
CCN(CC)c1nsc(NC(=O)NC)c1C#N | 182 to 183
O=C(OO)c1cccc(Cl)c1 | 127 to 129
CC(C)NC1=NS(=O)(=O)c2cc(F)c(NC(C)C)cc2N1 | 234 to 237
CC(=O)Nc1cccc(-c2cncnc2)c1 | 157 to 158
O=C(NCCOc1ccc(CC(Oc2ccccc2)C(=O)O)cc1Cl)c1ccc(-c2ccccn2)cc1 (stereo unspecified) | 59 to 61
CCCCCC(CC(=O)Nc1cc(C(N)=O)ccc1C(C)(C)C)c1cc(F)c(OC)cc1OC (stereo unspecified) | 150
CCCC(=O)N1N=C(c2ccc(N)cc2)c2cc(Cl)c(Cl)cc2CC1C (stereo unspecified) | 193 to 194
CCN1N=C(c2ccc(F)cc2)c2cc(Cl)c(Cl)cc2CS1(=O)=O | 218 to 221
CN(CCCCCCCNC(=NCCCOc1cccc(CN2CCCCC2)c1)NC#N)CCN(Cc1ccc(F)cc1)c1ccccn1 | 96 to 98

SMILES | melting point [°C]
COc1ccc(C2=NN(c3nc4ccccc4s3)C(=O)[C@H]3CC=CC[C@@H]23)cc1OC (relative stereo) | 176 to 177
CC(=O)OCC1OC(F)C(N2C(=O)c3ccccc3C2=O)C(OC(C)=O)C1OC(C)=O (stereo unspecified) | 116
CCCN(C(=O)C(F)(F)F)c1ccc(I)cc1 | 177 to 179
OCc1ccccc1CSc1ccccc1 | 64 to 65
Fc1ccc(F)c(C(Sc2ccc(Cl)cc2)c2ccc(CSc3ccc(Cl)cc3)cn2)c1 (stereo unspecified) | 87 to 88
CN1CCN(c2ccc(Cl)nn2)CC1 | 106 to 107
COc1ccc(-c2ccccc2-c2ccc(S(C)(=O)=O)cc2)cc1F | 136 to 137
CCN1CC(=O)N(c2c(C)cccc2Cl)C1=S | 124 to 126
CCCN(CC(O)C(Cc1ccccc1)NC(=O)C(C)CS(C)(=O)=O)S(=O)(=O)c1ccc(OC)cc1 (stereo unspecified) | 88 to 92
CCCCCCCCCCCCc1nnn(C(CCCCC)C(=O)Nc2c(OC)cc(OC)cc2OC)n1 (stereo unspecified) | 152 to 155
Cc1cccc2cc(N3CCN(CCO)CC3)[nH]c(=O)c12 | 209 to 210
CCOc1ccc(C(=O)c2c(-c3ccc(OC)cc3)sc3cc(OC)ccc23)cc1 | 124 to 125
O=C(NCCCCCCNC(=O)Nc1cccnc1)Nc1cccnc1 | 197 to 199
Cc1ncn2c1CN(C)C(=O)c1ccccc1-2 | 184 to 186
Cn1cc2c(n1)Nc1ccc(F)cc1N=C2N1CCN(CC2CC2)CC1 | 188 to 189
CCn1cc(CC(=O)O)c(OCCCc2ccc(OCOC)cc2Oc2ccc(C(F)(F)F)cn2)n1 | 82 to 83
CN(CCOc1ccc([N+](=O)[O-])cc1)c1ccncc1 | 88 to 89
COC(=O)C(NC(=O)c1c(F)cccc1F)c1ccc(Br)s1 (stereo unspecified) | 123 to 124
CC(C)(C)c1cc(C[Si](C)(C)C)cc(C(C)(C)C)c1S | 100 to 101
O=C(NCCCCOc1ccc(-n2ccnc2)cc1)c1ccccc1 | 117 to 118
Cc1nc(-c2ccccc2)nc(-c2ccccn2)n1 | 97
CCOc1nn(-c2c(Cl)cc(Cl)cc2Cl)c(N2C(=O)c3ccccc3C2=O)c1C(=O)c1ccccc1Cl | 215 to 216
CCCCCC1C=CC(c2ccc(F)c(F)c2)=CC1 (stereo unspecified) | 31
N#Cc1cc(C(=O)NNC(=O)c2occ(-c3cccc(OCc4ccccc4)c3)c2-c2cccc(OCc3ccccc3)c2)ccc1O | 171 to 174
CCN(CC)C(=O)Nc1ccc(S(=O)(=O)N2C(=O)C(CCCN(C)C)(c3ccccc3F)c3cc(C)c(OC)cc32)cc1F (stereo unspecified) | 82
COc1ccc(Cl)c(Oc2c(C=O)nc(N3CCOCC3)nc2NS(=O)(=O)c2ccc(C(C)(C)C)cc2)c1 | 235 to 236

SMILES | melting point [°C]
O=[N+]([O-])c1c(Br)nc2ccc(Cl)cc2c1C(F)(F)F | 120
O=C1NCc2c(Cl)nc3ccccc3c21 | 169 to 171
COc1ccccc1-c1cc(Cl)cc2c1NC(CN)CO2 (stereo unspecified) | 100
CC(C)=CCn1cc(C)nc1[N+](=O)[O-] | 53 to 54
CC(C)c1cccc(C(C)C)c1-n1nnn(C(C)C)c1=O | 60 to 62
Cc1c(F)c(Oc2cccnc2)nc(Oc2cccc(C(=N)N)c2)c1F | 213 to 214
O=C(O)C(Sc1ccccc1)c1ccc(Oc2ccc(Cl)cc2)cc1 (stereo unspecified) | 156 to 158
O=[N+]([O-])c1cc([N+](=O)[O-])c(Nc2nc(-c3ccc(Cl)cc3Cl)cs2)c(C(F)(F)F)c1 | 125 to 130
Cc1ccc(NC(=O)C(CS)Cc2ccccc2)c(C)c1C(=O)O (stereo unspecified) | 180 to 181
CCOC(=O)/C=C/c1ccc(OCOC)cc1Oc1ncc(C(F)(F)F)cc1Cl | 73.5 to 74.5
CC(C)(C)OC(=O)N1CCC(c2ccc(COc3ccc(-c4nc[nH]n4)cc3)nc2)CC1 | 147 to 150
Clc1cc(Cl)nc(N2CCSCC2)n1 | 79.5 to 81.5
O=CNc1nc(-c2cccnc2)c(Cl)s1 | 229
Cc1cc2c(c(C(C)(C)C)c1)OP(NC1CC(C)(C)N(C)C(C)(C)C1)Oc1c(cc(C)cc1C(C)(C)C)C2 | 207 to 216
CC(C)(C)NC(=S)Nc1cccc(SCCCC#N)n1 | 156 to 157
COc1ccc(CCNC(=O)C(F)(F)F)cc1NC(C)=O | 105 to 106
COc1ccc(C(=O)Oc2ccc(C(=O)O)c(F)c2)cc1C12CC3CC(CC(C3)C1)C2 | 254 to 256
C=C(c1cc(Cl)ccc1N1CCCCC1)C(C(N)=O)c1ccc(C(=O)O)cc1 (stereo unspecified) | 198 to 200
Cc1nc2c(cc1CO)CCCC2=Cc1ccccc1 | 102 to 103
CCN1C(=O)c2cccnc2Sc2ccccc21 | 148 to 149
c1ccc(Cn2c(N3CCCCC3)nc3ccccc32)cc1 | 84 to 87
CC(C)(C)OC(=O)NCCNc1n[nH]c2ncnc(Nc3cccc(Cl)c3)c12 | 206 to 208
Cc1nnc(-c2cccs2)c(=O)n1N | 210

Reference: a melting point compilation (Tetko et al.; mined from patent text by program, amines drawn as free bases though some values may be those of a salt)
